Laboratory results taken from US20230085307A1, “PYRIDAZINONE COMPOUND AND HERBICIDE” (NISSAN CHEMICAL CORPORATION, priority 2019, published 2023).

Tests used:
barnyard grass [1] = test: Test Example 3: herbicidal effect by foliage application, Wagner pot (Table 18, symbol H); assay type: in vivo, barnyard grass (Echinochloa crus-galli); conditions: 320 g/ha
Procedure, shortened: (§1)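 Plants were sown in alluvial soil held under 0.1–0.5 cm standing water and grown 14 days in a greenhouse at 25–30 °C. An emulsifiable formulation, water-diluted to the set dose, was then sprayed onto the foliage, and effects were scored three weeks later using previously defined criteria.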

Chinese sprangletop = test: Test Example 3: herbicidal effect by foliage application, Wagner pot (Table 18, symbol D); assay type: in vivo, chinese sprangletop (Leptochloa chinensis); conditions: 320 g/ha
Procedure, shortened: as §1

rice flat sedge = test: Test Example 3: herbicidal effect by foliage application, Wagner pot (Table 18, symbol E); assay type: in vivo, rice flat sedge (Cyperus iria); conditions: 320 g/ha
Procedure, shortened: as §1

southern crabgrass [2] = test: Test Example 4: herbicidal effect by soil treatment (Table 19, symbol F); assay type: in vivo, southern crabgrass (Digitaria ciliaris); conditions: amount of applied herbicide 320 g/ha
Procedure, shortened: (§2)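 Soil-surface application: an emulsion agent diluted with water to the predetermined dose is sprayed uniformly over seeds lying under roughly 1.5 cm of sterilized diluvial soil. Boxes stay in a greenhouse at 25° C. to 30° C. Three weeks later, each species is graded on previously defined criteria.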

green foxtail [3] = test: Test Example 4: herbicidal effect by soil treatment (Table 19, symbol G); assay type: in vivo, green foxtail (Setaria viridis); conditions: amount of applied herbicide 320 g/ha
Procedure, shortened: as §2

barnyard grass [4] = test: Test Example 4: herbicidal effect by soil treatment (Table 19, symbol H); assay type: in vivo, barnyard grass (Echinochloa crus-galli); conditions: amount of applied herbicide 320 g/ha
Procedure, shortened: as §2

wild oat [5] = test: Test Example 4: herbicidal effect by soil treatment (Table 19, symbol I); assay type: in vivo, wild oat (Avena fatua); conditions: amount of applied herbicide 320 g/ha
Procedure, shortened: as §2

blackgrass [6] = test: Test Example 4: herbicidal effect by soil treatment (Table 19, symbol J); assay type: in vivo, blackgrass (Alopecurus myosuroides); conditions: amount of applied herbicide 320 g/ha
Procedure, shortened: as §2

Italian ryegrass [7] = test: Test Example 4: herbicidal effect by soil treatment (Table 19, symbol K); assay type: in vivo, Italian ryegrass (Lolium multiflorum); conditions: amount of applied herbicide 320 g/ha
Procedure, shortened: as §2

windgrass [8] = test: Test Example 4: herbicidal effect by soil treatment (Table 19, symbol L); assay type: in vivo, windgrass (Apera spica-venti); conditions: amount of applied herbicide 320 g/ha
Procedure, shortened: as §2

velvetleaf [9] = test: Test Example 4: herbicidal effect by soil treatment (Table 19, symbol M); assay type: in vivo, velvetleaf (Abutilon theophrasti); conditions: amount of applied herbicide 320 g/ha
Procedure, shortened: as §2

redroot pigweed [10] = test: Test Example 4: herbicidal effect by soil treatment (Table 19, symbol N); assay type: in vivo, redroot pigweed (Amaranthus retroflexus); conditions: amount of applied herbicide 320 g/ha
Procedure, shortened: as §2

lambsquarters [11] = test: Test Example 4: herbicidal effect by soil treatment (Table 19, symbol O); assay type: in vivo, lambsquarters (Chenopodium album); conditions: amount of applied herbicide 320 g/ha
Procedure, shortened: as §2

chickweed [12] = test: Test Example 4: herbicidal effect by soil treatment (Table 19, symbol P); assay type: in vivo, common chickweed (Stellaria media); conditions: amount of applied herbicide 320 g/ha
Procedure, shortened: as §2

persian speedwell [13] = test: Test Example 4: herbicidal effect by soil treatment (Table 19, symbol R); assay type: in vivo, Persian speedwell (Veronica persica); conditions: amount of applied herbicide 320 g/ha
Procedure, shortened: as §2

southern crabgrass [14] = test: Test Example 5: herbicidal effect by foliage application, plastic box (Table 20, symbol F); assay type: in vivo, southern crabgrass (Digitaria ciliaris); conditions: 320 g/ha, foliage application after 14-day growth, evaluated three weeks after application
Procedure, shortened: (§3)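 Sow seeds spot-wise in sterilized diluvial soil; cover with ~1.5 cm soil. Grow 14 days in greenhouse, 25° C. to 30° C. Spray foliage with emulsion diluted to predetermined amount. Rate effect after 3 weeks.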

green foxtail [15] = test: Test Example 5: herbicidal effect by foliage application, plastic box (Table 20, symbol G); assay type: in vivo, green foxtail (Setaria viridis); conditions: 320 g/ha, foliage application after 14-day growth, evaluated three weeks after application
Procedure, shortened: as §3

barnyard grass [16] = test: Test Example 5: herbicidal effect by foliage application, plastic box (Table 20, symbol H); assay type: in vivo, barnyard grass (Echinochloa crus-galli); conditions: 320 g/ha, foliage application after 14-day growth, evaluated three weeks after application
Procedure, shortened: as §3

wild oat [17] = test: Test Example 5: herbicidal effect by foliage application, plastic box (Table 20, symbol I); assay type: in vivo, wild oat (Avena fatua); conditions: 320 g/ha, foliage application after 14-day growth, evaluated three weeks after application
Procedure, shortened: as §3

blackgrass [18] = test: Test Example 5: herbicidal effect by foliage application, plastic box (Table 20, symbol J); assay type: in vivo, blackgrass (Alopecurus myosuroides); conditions: 320 g/ha, foliage application after 14-day growth, evaluated three weeks after application
Procedure, shortened: as §3

Italian ryegrass [19] = test: Test Example 5: herbicidal effect by foliage application, plastic box (Table 20, symbol K); assay type: in vivo, Italian ryegrass (Lolium multiflorum); conditions: 320 g/ha, foliage application after 14-day growth, evaluated three weeks after application
Procedure, shortened: as §3

windgrass [20] = test: Test Example 5: herbicidal effect by foliage application, plastic box (Table 20, symbol L); assay type: in vivo, windgrass (Apera spica-venti); conditions: 320 g/ha, foliage application after 14-day growth, evaluated three weeks after application
Procedure, shortened: as §3

velvetleaf [21] = test: Test Example 5: herbicidal effect by foliage application, plastic box (Table 20, symbol M); assay type: in vivo, velvetleaf (Abutilon theophrasti); conditions: 320 g/ha, foliage application after 14-day growth, evaluated three weeks after application
Procedure, shortened: as §3

redroot pigweed [22] = test: Test Example 5: herbicidal effect by foliage application, plastic box (Table 20, symbol N); assay type: in vivo, redroot pigweed (Amaranthus retroflexus); conditions: 320 g/ha, foliage application after 14-day growth, evaluated three weeks after application
Procedure, shortened: as §3

lambsquarters [23] = test: Test Example 5: herbicidal effect by foliage application, plastic box (Table 20, symbol O); assay type: in vivo, lambsquarters (Chenopodium album); conditions: 320 g/ha, foliage application after 14-day growth, evaluated three weeks after application
Procedure, shortened: as §3

chickweed [24] = test: Test Example 5: herbicidal effect by foliage application, plastic box (Table 20, symbol P); assay type: in vivo, common chickweed (Stellaria media); conditions: 320 g/ha, foliage application after 14-day growth, evaluated three weeks after application
Procedure, shortened: as §3

persian speedwell [25] = test: Test Example 5: herbicidal effect by foliage application, plastic box (Table 20, symbol R); assay type: in vivo, Persian speedwell (Veronica persica); conditions: 320 g/ha, foliage application after 14-day growth, evaluated three weeks after application
Procedure, shortened: as §3

With `COc1cc(F)ccc1-c1sc2c(F)cccc2c1-c1c(O)c(C)nn(C)c1=O` [4-011] the “herbicidal effect on barnyard grass (H)” value (barnyard grass [1]) was 4 (Herbicidal rate of 70% or more and less than 90%), the “herbicidal effect on Chinese sprangletop (D)” value (Chinese sprangletop) was 3 (Herbicidal rate of 40% or more and less than 70%) and the “herbicidal effect on rice flat sedge (E)” value (rice flat sedge) was 5 (Herbicidal rate of 90% or more (almost completely withered)). For the same compound, the “Herbicidal effect by soil treatment, F: southern crabgrass” value (southern crabgrass [2]) was 0 (Herbicidal rate of 5% or less (almost no effect)), the “Herbicidal effect by soil treatment, G: green foxtail” value (green foxtail [3]) was 3 (Herbicidal rate of 40% or more and less than 70%) and the “Herbicidal effect by soil treatment, H: barnyard grass” value (barnyard grass [4]) was 3 (Herbicidal rate of 40% or more and less than 70%). The “Herbicidal effect by soil treatment, I: wild oat” value (wild oat [5]) was 0 (Herbicidal rate of 5% or less (almost no effect)), the “Herbicidal effect by soil treatment, J: blackgrass” value (blackgrass [6]) was 0 (Herbicidal rate of 5% or less (almost no effect)) and the “Herbicidal effect by soil treatment, K: Italian ryegrass” value (Italian ryegrass [7]) was 0 (Herbicidal rate of 5% or less (almost no effect)). For the same compound, the “Herbicidal effect by soil treatment, L: windgrass” value (windgrass [8]) was 0 (Herbicidal rate of 5% or less (almost no effect)), the “Herbicidal effect by soil treatment, M: velvetleaf” value (velvetleaf [9]) was 0 (Herbicidal rate of 5% or less (almost no effect)) and the “Herbicidal effect by soil treatment, N: redroot pigweed” value (redroot pigweed [10]) was 2 (Herbicidal rate of 20% or more and less than 40%). The “Herbicidal effect by soil treatment, O: lambsquarters” value (lambsquarters [11]) was 3 (Herbicidal rate of 40% or more and less than 70%), the “Herbicidal effect by soil treatment, P: chickweed” value (chickweed [12]) was 3 (Herbicidal rate of 40% or more and less than 70%) and the “Herbicidal effect by soil treatment, R: persian speedwell” value (persian speedwell [13]) was 0 (Herbicidal rate of 5% or less (almost no effect)). For the same compound, the “herbicidal effect on F: southern crabgrass (evaluation grade 0-5)” value (southern crabgrass [14]) was 2 (Herbicidal rate of 20% or more and less than 40%), the “herbicidal effect on G: green foxtail (evaluation grade 0-5)” value (green foxtail [15]) was 5 (Herbicidal rate of 90% or more (almost completely withered)) and the “herbicidal effect on H: barnyard grass (evaluation grade 0-5)” value (barnyard grass [16]) was 3 (Herbicidal rate of 40% or more and less than 70%). For the same compound, the “herbicidal effect on I: wild oat (evaluation grade 0-5)” value (wild oat [17]) was 0 (Herbicidal rate of 5% or less (almost no effect)), the “herbicidal effect on J: blackgrass (evaluation grade 0-5)” value (blackgrass [18]) was 3 (Herbicidal rate of 40% or more and less than 70%) and the “herbicidal effect on K: Italian ryegrass (evaluation grade 0-5)” value (Italian ryegrass [19]) was 3 (Herbicidal rate of 40% or more and less than 70%). For the same compound, the “herbicidal effect on L: windgrass (evaluation grade 0-5)” value (windgrass [20]) was 3 (Herbicidal rate of 40% or more and less than 70%), the “herbicidal effect on M: velvetleaf (evaluation grade 0-5)” value (velvetleaf [21]) was 3 (Herbicidal rate of 40% or more and less than 70%) and the “herbicidal effect on N: redroot pigweed (evaluation grade 0-5)” value (redroot pigweed [22]) was 3 (Herbicidal rate of 40% or more and less than 70%). For the same compound, the “herbicidal effect on O: lambsquarters (evaluation grade 0-5)” value (lambsquarters [23]) was 3 (Herbicidal rate of 40% or more and less than 70%), the “herbicidal effect on P: chickweed (evaluation grade 0-5)” value (chickweed [24]) was 5 (Herbicidal rate of 90% or more (almost completely withered)) and the “herbicidal effect on R: persian speedwell (evaluation grade 0-5)” value (persian speedwell [25]) was 5 (Herbicidal rate of 90% or more (almost completely withered)).
